From the supplement of paper PMC10307832

How the values were obtained:
Assay in all cases: relative viability (nuclei count vs DMSO), 5 days (fraction); higher = more cells survive
Carboplatin = compound: C1CC(C1)(C(=O)O)C(=O)O.[NH2-].[NH2-].[Pt+2] [Carboplatin]
How it was run: (§1)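 After an overnight hold at 37 °C, lung cancer cell lines in 1536-well plates were pinned with five library-drug doses (not always all listed), each √10 from the next, on vehicle-anchored plates. The cells stayed 5 days without fresh medium, then a one-step fix, permeabilisation and Hoechst stain preceded 4× imaging and MetaXpress nuclear counts. A plate passed only with control CV under 25% and at least one doubling. Viability is the median, over plates, of treated-well nuclei relative to vehicle-well nuclei.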

GSK126 = compound: CC[C@H](C)N1C=C(C2=C(C=C(C=C21)C3=CN=C(C=C3)N4CCNCC4)C(=O)NCC5=C(C=C(NC5=O)C)C)C [GSK126]
How it was run: as §1

MLN4924 = compound: NS(=O)(=O)OC[C@@H]1C[C@@H](n2ccc3c(N[C@H]4CCc5ccccc54)ncnc32)C[C@@H]1O [MLN4924]
How it was run: as §1

MLN4924 + Foretinib = compound: NS(=O)(=O)OC[C@@H]1C[C@@H](n2ccc3c(N[C@H]4CCc5ccccc54)ncnc32)C[C@@H]1O [MLN4924] + COc1cc2c(Oc3ccc(NC(=O)C4(C(=O)Nc5ccc(F)cc5)CC4)cc3F)ccnc2cc1OCCCN1CCOCC1 [Foretinib] (partner 0.25 µM)
How it was run: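 Lung cancer cell lines, seeded in 1536-well plates, were treated the following day by pin tool with a single drug or with five library-drug doses (not always all listed) in √10 steps on top of a fixed anchor-drug dose. Cells were fixed and nuclei stained in one step after 5 days, and nuclei were counted. Relative viability is the nuclei count for treated wells divided by that for vehicle wells, reported as medians of duplicate plates.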

| Cell Line | relative viability (Carboplatin; 0.08 µM) | relative viability (Carboplatin; 0.253 µM) | relative viability (Carboplatin; 0.8 µM) | relative viability (Carboplatin; 2.53 µM) | relative viability (Carboplatin; 8 µM) | relative viability (GSK126; 0.08 µM) | relative viability (GSK126; 0.253 µM) | relative viability (GSK126; 0.8 µM) | relative viability (GSK126; 2.53 µM) | relative viability (GSK126; 8 µM) | relative viability (MLN4924; 0.04 µM) | relative viability (MLN4924; 0.1265 µM) | relative viability (MLN4924; 0.4 µM) | relative viability (MLN4924; 1.265 µM) | relative viability (MLN4924; 4 µM) | relative viability (MLN4924 + Foretinib; first compound 0.04 µM) | relative viability (MLN4924 + Foretinib; first compound 0.1265 µM) | relative viability (MLN4924 + Foretinib; first compound 0.4 µM) | relative viability (MLN4924 + Foretinib; first compound 1.265 µM) | relative viability (MLN4924 + Foretinib; first compound 4 µM) |
| --- | --- | --- | --- | --- | --- | --- | --- | --- | --- | --- | --- | --- | --- | --- | --- | --- | --- | --- | --- | --- |
| SW 900 | 0.808 | 0.774 | 0.822 | 0.837 | 0.68 | 0.844 | 0.853 | 0.788 | 0.896 | 0.892 | 0.68 | 0.825 | 0.384 | 0.21 | 0.184 | 0.762 | 0.682 | 0.315 | 0.179 | 0.107 |
| LK-2 | 1.11 | 0.943 | 0.947 | 0.937 | 1.06 | 1.01 | 0.988 | 0.985 | 1.08 | 0.994 | 0.971 | 0.787 | 0.618 | 0.245 | 0.239 | 1.35 | 0.676 | 0.621 | 0.265 | 0.222 |
| NCI-H2085 | 1.08 | 1 | 0.981 | 1.01 | 0.905 | 1.06 | 1.05 | 0.958 | 0.943 | 1.02 | 0.978 | 1.01 | 1.12 | 0.772 | 0.541 | 1.04 | 0.855 | 0.809 | 0.655 | 0.401 |
| NCI-H650 | 0.988 | 0.874 | 0.959 | 0.864 | 0.668 | 0.991 | 0.962 | 0.939 | 0.914 | 1.03 | 0.618 | 0.668 | 0.268 | 0.183 | 0.194 | 0.863 | 0.499 | 0.341 | 0.197 | 0.191 |
| NCI-H2170 | 0.957 | 0.944 | 0.972 | 0.964 | 0.864 | 1.03 | 1.05 | 0.881 | 1.03 | 0.932 | 1 | 0.92 | 0.406 | 0.164 | 0.197 | 1.02 | 0.277 | 0.28 | 0.199 | 0.227 |
| NCI-H1623 | 1.03 | 0.963 | 0.872 | 0.875 | 0.695 | 0.974 | 1.04 | 0.959 | 0.954 | 1 | 0.744 | 0.53 | 0.443 | 0.298 | 0.246 | 0.704 | 0.536 | 0.468 | 0.289 | 0.294 |
| LC-2-ad | 1.01 | 0.948 | 0.955 | 0.953 | 0.849 | 1.09 | 0.985 | 0.988 | 1.02 | 1.05 | 0.922 | 0.825 | 0.521 | 0.235 | 0.181 | 0.845 | 0.793 | 0.592 | 0.212 | 0.186 |
| NCI-H322M | 1.1 | 0.918 | 0.984 | 0.969 | 0.931 | 0.925 | 0.959 | 0.992 | 1.09 | 0.968 | 1.26 | 1.3 | 0.684 | 0.273 | 0.35 | 1.12 | 1.22 | 0.801 | 0.284 | 0.357 |
| A549 | 1.02 | 1.01 | 0.938 | 0.935 | 0.563 | 1.08 | 0.946 | 0.955 | 1.01 | 0.987 | 0.946 | 0.863 | 0.658 | 0.0802 | 0.0487 | 0.972 | 0.8 | 0.508 | 0.0828 | 0.0301 |
| LCLC-97TM1 | 1.13 | 0.978 | 1.09 | 1.03 | 0.837 | 0.999 | 0.965 | 0.91 | 1.02 | 1.11 | 0.929 | 0.657 | 0.31 | 0.073 | 0.0774 | 0.97 | 0.424 | 0.69 | 0.127 | 0.123 |
| NCI-H596 | 0.993 | 0.995 | 0.938 | 0.826 | 0.752 | 0.983 | 0.9 | 0.965 | 1.01 | 0.981 | 0.973 | 1.1 | 0.554 | 0.854 | 0.739 | 0.847 | 1.04 |  | 0.65 | 0.58 |
| NCI-H1944 | 0.887 | 0.967 | 0.922 | 0.981 | 0.644 | 1.1 | 0.902 | 1 | 0.998 | 1.13 | 0.975 | 0.788 | 0.583 | 0.176 | 0.176 | 0.771 | 0.58 | 0.301 | 0.182 | 0.161 |
| NCI-H1755 | 1.05 | 1.03 | 1.04 | 1 | 0.966 | 1.04 | 1.06 | 0.978 | 1 | 1.06 | 0.954 | 0.905 | 0.547 | 0.255 | 0.198 | 0.979 | 0.804 | 0.421 | 0.243 | 0.184 |
| H3255 | 0.979 | 1.11 | 1.01 | 0.939 | 0.784 | 1.04 | 1.01 | 0.993 | 1.06 | 0.963 | 0.825 | 0.721 | 0.391 | 0.246 | 0.328 | 0.799 | 0.746 | 0.34 | 0.285 | 0.278 |
| NCI-H23 | 1.13 | 1.01 | 0.991 | 1.02 | 0.792 | 1.03 | 0.949 | 1.02 | 1.18 | 1.21 | 0.815 | 0.721 | 0.462 | 0.204 | 0.206 | 0.968 | 0.839 | 0.767 | 0.285 | 0.184 |
